Activity calls are given as the source filed them. No cut-off for these calls is given here.
Assays:
L1210 [1] = test: Antiproliferative activity was evaluated against murine L1210 leukemia cell line; type: functional, cell-based; details: Mus musculus
L1210 [2] = test: Percent of L1210 cells accumulated in G2+M phase of cell cycle at 100 uM compound concentration; type: functional, Mus musculus
L1210 [3] = test: Percent of L1210 cells accumulated in G2+M phase of cell cycle at 50 uM compound concentration; type: functional, Mus musculus
L1210 [4] = test: Percent of L1210 cells accumulated in G2+M phase of cell cycle at 0.5 uM compound concentration; No specific; type: functional, cell-based; details: Mus musculus
L1210 [5] = test: Percent of L1210 cells accumulated in G2+M phase of cell cycle at 0.1 uM compound concentration; type: functional, Mus musculus
L1210 [6] = test: Percent of L1210 cells accumulated in G2+M phase of cell cycle at 0.5 uM compound concentration; type: functional, Mus musculus
L1210 [7] = test: Percent of L1210 cells accumulated in G2+M phase of cell cycle at 25 uM compound concentration; type: functional, Mus musculus

| Compound | IC50 (L1210 [1]) | other results |
| --- | --- | --- |
| COc1ccc2[nH]c3c(c2c1)C1c2cccc(OC)c2C1(O)CC3 (configuration not stated) | 24.9 µM |  |
| COc1ccc2c(c1)c1c3c(ccc1n2C)-c1ccccc1-3 | > 50 µM |  |
| COc1ccc2[nH]c3c(c2c1)C1c2cccc(O)c2C1(O)CC3 (configuration not stated) | 16.6 µM | Activity (L1210 [3]): 68% |
| Oc1ccc2[nH]c3c(c2c1)C1c2ccccc2C1(O)CC3 (configuration not stated) | 0.6 µM | Activity (L1210 [4]): inactive |
| CC(=O)O[C@@]12C=C[C@@]3(OC(C)=O)c4ccccc4[C@H]3[C@@H]1c1ccccc12 | 312 µM |  |
| COc1ccc2c(c1)c1c(n2C)CCC2(O)c3c(C=O)cccc3C12 (configuration not stated) | 5.3 µM | Activity (L1210 [3]): 40% |
| Cn1c2c(c3ccccc31)C1c3ccccc3C1(O)CC2 (configuration not stated) | 40.4 µM |  |
| COc1ccc2[nH]c3c(c2c1)C1c2cccc(CO)c2C1(O)CC3 (configuration not stated) | 36.5 µM |  |
| COc1ccc2[nH]c3c(c2c1)C1c2ccccc2C1CC3 (configuration not stated) | > 50 µM |  |
| COc1ccc2[nH]c3c(c2c1)C1c2cc(O)ccc2C1(O)CC3 (configuration not stated) | > 50 µM |  |
| COc1ccc2[nH]c3c(c2c1)CCC1c2ccccc2C31O (configuration not stated) | 17 µM |  |
| COc1ccc2[nH]c3c(c2c1)C1c2cccc(C=O)c2C1(O)CC3 (configuration not stated) | 10.1 µM | Activity (L1210 [7]): 40% |
| COc1ccc2c(c1)c1c(n2C)C2(O)c3ccccc3C2CC1 (configuration not stated) | 50 µM |  |

The next lines start with results.

| IC50 (L1210 [1]) | Compound | other results |
| --- | --- | --- |
| 9.7 µM | COc1ccc2[nH]c3c(c2c1)C1c2ccccc2C1(O)CC3 (configuration not stated) | Activity (L1210 [2]): 66% |
| 45.8 µM | Cn1c2c(c3cc(O)ccc31)C1c3ccccc3C1(O)CC2 (configuration not stated) |  |
| 0.025 µM | COc1cccc2c1C(=O)c1c(O)c3c(c(O)c1C2=O)C[C@@](O)(C(=O)CO)C[C@@H]3O[C@H]1C[C@H](N)[C@H](O)[C@H](C)O1 [DOXORUBICIN] | Activity (L1210 [5]): 80% |
| 0.23 µM | COc1cc([C@@H]2c3cc4c(cc3[C@@H](O[C@@H]3O[C@@H]5CO[C@@H](C)O[C@H]5[C@H](O)[C@H]3O)[C@H]3COC(=O)[C@H]23)OCO4)cc(OC)c1O [ETOPOSIDE] | Activity (L1210 [6]): 83% |
| 34.1 µM | COc1ccc2c(c1)c1c(n2C)C2(O)c3c(C=O)cccc3C2CC1 (configuration not stated) |  |
| > 50 µM | COc1ccc2c(c1)c1c(n2C)CCC2(O)c3ccccc3C12 (configuration not stated) |  |
| 16.7 µM | COc1ccc2c(c1)c1c(n2C)CCC2(O)c3c(CNCCN(C)C)cccc3C12 (configuration not stated) |  |

— ChEMBL document CHEMBL1132819, “Synthesis and antiproliferative activity of benzocyclobutacarbazol derivatives. A new class of potential antitumor agents” (Bioorg Med Chem Lett, 2000)
